Experimental findings from patent US7759369B2, “Pyridine compounds for the treatment of prostaglandin mediated diseases” (Glaxo Group Limited, priority 2004, dated 2010) are described below.

Structures can show the parent of a compound that is named as a salt.

One experiment concerns the target T1, TP receptor (Homo sapiens, UniProt P21731).
T1 construct: expressed in transfected cells; host or cells: CHO-K1
T1 sequence (P21731 1-343): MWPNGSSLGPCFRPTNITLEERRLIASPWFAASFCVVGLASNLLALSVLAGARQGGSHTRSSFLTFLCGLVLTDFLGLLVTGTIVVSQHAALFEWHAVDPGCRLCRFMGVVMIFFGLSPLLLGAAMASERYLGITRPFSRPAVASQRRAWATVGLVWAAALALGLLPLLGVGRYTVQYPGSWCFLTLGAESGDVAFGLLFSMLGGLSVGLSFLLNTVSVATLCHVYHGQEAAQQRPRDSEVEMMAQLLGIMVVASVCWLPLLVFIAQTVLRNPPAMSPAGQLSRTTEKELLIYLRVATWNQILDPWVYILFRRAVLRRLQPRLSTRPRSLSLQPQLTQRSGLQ
The experiment can be described thus: human TP calcium mobilisation assay (CHO-K1 cells, U46619, FLIPR). In kind it is cell-based. The note with it: free bases or sodium salts; read-out: functional pKi, human TP calcium mobilisation assay (converted). On the procedure:
To determine if a compound has agonist or antagonist activity at the TP receptor a functional calcium mobilisation assay may be performed. Briefly, the antagonist properties of compounds are assessed by their ability to inhibit the mobilisation of intracellular calcium ([Ca^2+]i) in response to activation of TP receptors by the stable TXA2 mimetic U46619 (9,11-dideoxy-11α,9α-epoxy-methanoprostaglandin F2 α; commercially available from e.g Sigma-Aldrich). Increasing concentrations of antagonist reduce the amount of calcium that a given concentration of U46619 can mobilise. The net effect is to displace the U46619 concentration-effect curve. The amount of calcium produced is assessed using a calcium-sensitive fluorescent dye such as Fluo-4, AM and a suitable instrument such as a Fluorimetric Imaging Plate Reader (FLIPR). Increasing amounts of [Ca^2+]i produced by receptor activation increase the amount of fluorescence produced by the dye and give rise to an increasing signal. The signal may be detected using the FLIPR instrument and the data generated may be analysed with suitable curve-fitting software. The agonist activity of the compounds are determined by their ability to cause an increase in intracellular mobilisation in the absence of U46619.
The human TP calcium mobilisation assay utilises Chinese hamster ovary-K1 (CHO-K1) cells into which a stable (pCIN; BioTechniques 20 (1996): 102-110) vector containing TP cDNA has previously been transfected. Cells are cultured in suitable flasks containing culture medium such as DMEM:F-12 supplemented with 10% v/v foetal calf serum, 2 mM L-glutamine, 0.25 mg/ml geneticin, 100 μM flurbiprofen and 10 μg/ml puromycin.
(§1) For assay, cells are harvested using a proprietary reagent that dislodges cells such as Versene. Cells are re-suspended in a suitable quantity of fresh culture media for introduction into a 96-well plate. Following incubation for 24 hours at 37° C. the culture media is replaced with a medium containing Fluo-4 and the detergent pluronic acid, and a further incubation takes place. Concentrations of compounds are then added to the plate in order to construct concentration-effect curves. This may be performed on the FLIPR in order to assess the agonist properties of the compounds. Concentrations of U46619 are then added to the plate in order to assess the antagonist properties of the compounds.
The data so generated may be analysed by means of a computerised curve-fitting routine. The concentration of compound that elicits a half-maximal inhibition of the calcium mobilisation induced by U46619 (plC50) may then be estimated, and the percentage activation caused by the compounds directly can be used to determine if there is any agonism present.

For a further experiment, the target named is T2, EP1 receptors (Homo sapiens, UniProt P34995).
T2 sequence (P34995 1-402): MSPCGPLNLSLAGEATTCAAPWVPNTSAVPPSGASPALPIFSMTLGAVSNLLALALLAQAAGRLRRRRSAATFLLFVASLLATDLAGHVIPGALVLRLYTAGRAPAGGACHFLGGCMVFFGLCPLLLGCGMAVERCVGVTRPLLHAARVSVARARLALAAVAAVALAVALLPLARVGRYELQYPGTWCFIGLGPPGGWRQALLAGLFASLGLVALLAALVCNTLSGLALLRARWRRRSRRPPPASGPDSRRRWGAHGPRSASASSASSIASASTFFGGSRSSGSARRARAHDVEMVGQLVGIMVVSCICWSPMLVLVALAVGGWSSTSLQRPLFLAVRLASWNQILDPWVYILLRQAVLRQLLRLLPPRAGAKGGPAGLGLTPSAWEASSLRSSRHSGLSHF
The experiment can be described thus: human EP1 calcium mobilisation assay (CHO-K1 cells, PGE2, FLIPR). The class given is cell-based. The note with it: free bases or sodium salts; averages of a number of experiments; read-out: functional pKi value, human EP1 calcium mobilisation assay (converted). The arrangement: expressed in transfected cells; host or cells: CHO-K1. As to the method: Briefly, the antagonist properties of compounds are assessed by their ability to inhibit the mobilisation of intracellular calcium ([Ca^2+]i) in response to activation of EP1 or EP3 receptors by the natural agonist hormone prostaglandin E2 (PGE2). Increasing concentrations of antagonist reduce the amount of calcium that a given concentration of PGE2 can mobilise. The net effect is to displace the PGE2 concentration-effect curve to higher concentrations of PGE2. The amount of calcium produced is assessed using a calcium-sensitive fluorescent dye such as Fluo-4, AM and a suitable instrument such as a Fluorimetric Imaging Plate Reader (FLIPR). Increasing amounts of [Ca^2+]i produced by receptor activation increase the amount of fluorescence produced by the dye and give rise to an increasing signal. The signal may be detected using the FLIPR instrument and the data generated may be analysed with suitable curve-fitting software.
The human EP1 or EP3 calcium mobilisation assay (hereafter referred to as ‘the calcium assay’) utilises Chinese hamster ovary-K1 (CHO-K1) cells into which a stable (pCIN; BioTechniques 20 (1996): 102-110) vector containing either EP1 or EP3 cDNA has previously been transfected. Cells are cultured in suitable flasks containing culture medium such as DMEM:F-12 supplemented with 10% v/v foetal calf serum, 2 mM L-glutamine, 0.25 mg/ml geneticin, 100 μM flurbiprofen and 10 µg/ml puromycin.
as §1, with “384-well” for “96-well”, “PGE2” for “U46619”
The data so generated may be analysed by means of a computerised curve-fitting routine. The concentration of compound that elicits a half-maximal inhibition of the calcium mobilisation induced by PGE2 (pIC50) may then be estimated.
Background: Calcium assays in cells follow changes in intracellular calcium, usually with a dye or a luminescent sensor.

Regarding `Fc1cc(Cl)ccc1COc1ccc(Cl)cc1Cc1cccc(-c2nnn[nH]2)n1` [Example 38, 2-[(5-Chloro-2-{[(4-chloro-2-fluorophenyl)methyl]oxy}phenyl)-methyl]-6-(1H-tetrazol-5-yl)pyridine], the Ki at TP receptor and on EP1 receptors was not above 31.6 nM each time.
Consider `O=C(O)c1cccc(Cc2cc(Cl)ccc2OCc2ccc(F)cc2F)n1` [Example 4, Sodium 6-[(5-chloro-2-{[(2,4-difluorophenyl)methyl]oxy}phenyl)methyl]-2-pyridinecarboxylate], for which the Ki on TP receptor is less than 1000 nM; on EP1 receptors it was not above 31.6 nM.
As to `CS(=O)(=O)NC(=O)c1cccc(Cc2cc(Cl)ccc2OCc2ccc(Cl)cc2F)n1` [Example 29, 6-[(5-Chloro-2-{[(4-chloro-2-fluorophenyl)methyl]oxy}-phenyl)methyl]-N-(methylsulphonyl)-2-pyridinecarboxamide], the Ki at TP receptor is more than 1000 nM; on EP1 receptors, not above 31.6 nM.
On to `O=C(O)c1cccc(Cc2cc(Cl)ccc2OCc2cc(F)c(F)cc2F)n1` [Example 10, Sodium 6-[(5-chloro-2-{[(2,4,5-trifluorophenyl)methyl]oxy}phenyl)methyl]-2-pyridinecarboxylate], for which the Ki at TP receptor and at EP1 receptors was less than 1000 nM throughout.
For `O=C(O)c1cccc(Cc2cc(Cl)ccc2OCc2ccc(Cl)cc2F)n1` [Example 3, Sodium 6-[(5-chloro-2-{[(4-chloro-2-fluorophenyl)methyl]oxy}phenyl)methyl]-2-pyridinecarboxylate], the Ki at TP receptor and at EP1 receptors was not above 31.6 nM in each case.
In the case of `Cc1ccc(C(=O)O)nc1Cc1cc(Cl)ccc1OCc1ccc(Cl)cc1F` [Example 39, 6-[(5-Chloro-2-{[(4-chloro-2-fluorophenyl)methyl]oxy}-phenyl)methyl]-5-methyl-2-pyridinecarboxylic acid, sodium salt], the Ki at TP receptor was not above 31.6 nM; on EP1 receptors, less than 1000 nM.
For `O=C(NS(=O)(=O)c1ccc(Br)cc1)c1cccc(Cc2cc(Cl)ccc2OCc2ccc(Cl)cc2F)n1` [Example 33, N-[(4-Bromophenyl)sulphonyl]-6-[(5-chloro-2-{[(4-chloro-2-fluorophenyl)methyl]oxy}phenyl)-methyl]-2-pyridinecarboxamide] the same measures were more than 1000 nM and less than 1000 nM.
For `O=C(O)c1cccc(Cc2cc(Cl)ccc2OCC2CCCC2)n1` [Example 14, Sodium 6-({5-chloro-2-[(cyclopentylmethyl)oxy]phenyl}methyl)-2-pyridinecarboxylate] the same measures were less than 1000 nM and less than 1000 nM.
The corresponding values for `O=C(O)c1cccc(Cc2cc(Cl)ccc2OCc2ccc(F)cc2Cl)n1` [Example 11, Sodium 6-[(5-chloro-2-{[(2-chloro-4-fluorophenyl)methyl]oxy}phenyl)methyl]-2-pyridinecarboxylate] are less than 1000 nM and less than 1000 nM.
Regarding `O=C(NS(=O)(=O)c1ccccc1)c1cccc(Cc2cc(Cl)ccc2OCc2ccc(Cl)cc2F)n1` [Example 28, 6-[(5-chloro-2-{[(4-chloro-2-fluorophenyl)methyl]oxy}phenyl)-methyl]-N-(phenylsulphonyl)-2-pyridinecarboxamide], the Ki on TP receptor was less than 1000 nM; at EP1 receptors, not above 31.6 nM.
Consider `O=C(O)c1cccc(Cc2cc(Cl)ccc2OCc2ccc(Cl)cc2Cl)n1` [Example 12, Sodium 6-[(5-chloro-2-{[(2,4-dichlororophenyl)methyl]oxy}phenyl)methyl]-2-pyridinecarboxylate], for which the Ki on TP receptor and at EP1 receptors was not above 31.6 nM in each case.
As to `CCCS(=O)(=O)NC(=O)c1cccc(Cc2cc(Cl)ccc2OCc2ccc(Cl)cc2F)n1` [Example 30, 6-[(5-Chloro-2-{[(4-chloro-2-fluorophenyl)methyl]oxy}-phenyl)methyl]-N-(propylsulphonyl)-2-pyridinecarboxamide], the figures for the Ki at TP receptor and at EP1 receptors were less than 1000 nM and not above 31.6 nM, respectively.
Regarding `Cc1noc(C)c1S(=O)(=O)NC(=O)c1cccc(Cc2cc(Cl)ccc2OCc2ccc(Cl)cc2F)n1` [Example 36, 6-[(5-Chloro-2-{[(4-chloro-2-fluorophenyl)methyl]oxy}-phenyl)methyl]-N-[(3,5-dimethyl-4-isoxazolyl)sulphonyl]-2-pyridinecarboxamide], the values for the Ki at TP receptor and on EP1 receptors were less than 1000 nM and not above 31.6 nM, respectively.
Regarding `O=C(NS(=O)(=O)c1cccc(Br)c1)c1cccc(Cc2cc(Cl)ccc2OCc2ccc(Cl)cc2F)n1` [Example 34, N-[(3-Bromophenyl)sulphonyl]-6-[(5-chloro-2-{[(4-chloro-2-fluorophenyl)methyl]oxy}phenyl)-methyl]-2-pyridinecarboxamide], the Ki at TP receptor and at EP1 receptors was not above 31.6 nM throughout.
